Results taken from patent publication US10125098B2, “Therapeutic compounds and methods of use thereof” (GENENTECH, INC., priority 2014, dated 2018).
Read-outs that look alike come from different tables or passages of the source.

Columns and labels:
hNav1.7 = molecular target: T1, hNav1.7 (Homo sapiens, UniProt Q15858); assay: Tritiated compound binding (LBA) to membranes from cells expressing hNav1.7 and the β1 subunit, competitive binding; conditions: competitive binding vs 100 pM [3H]compound, 18 h, room temperature, membranes with hNav1.7 and β1 subunit
T1 construct: expressed in transfected cells
Summary of the method: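 Competitive displacement of 100 pM [3H]compound (tritiated methyl analogue of formula (I)) from hNav1.7/β1 membranes, 18 h at room temperature in NaCl/Tris pH 7.4 buffer containing 0.01% BSA. 1 μM unlabeled compound set non-specific binding. Bound label quantified by scintillation after filtration; 4-parameter fit gave IC50.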

human NaV1.7 = molecular target: T2, human NaV1.7 (Homo sapiens, UniProt Q15858); assay: Patch voltage clamp electrophysiology assay (EP), NaV1.7; format: cell-based; conditions: HEK-293 cells stably expressing NaV1.7 with β1 subunit; whole-cell patch clamp, membrane potential −60 mV (inactivated state)
T2 construct: permanently transfected with an expression vector containing the full-length cDNA coding for the desired human sodium channel α-subunit; expressed in transfected cells; host or cells: HEK-293
Summary of the method: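 Percent block is the drop in sodium current after compound wash-on, measured by a test pulse following 20 ms at −150 mV from a −60 mV inactivating holding potential.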

NaV1.5 = molecular target: T3, NaV1.5 (Homo sapiens, UniProt Q14524); assay: Patch voltage clamp electrophysiology assay (EP), NaV1.5; format: cell-based; conditions: HEK-293 cells stably expressing NaV1.5 with β1 subunit, whole-cell patch clamp, membrane potential −60 mV (inactivated state)
T3 construct: permanently transfected with an expression vector containing the full-length cDNA coding for the desired human sodium channel α-subunit; expressed in transfected cells; host or cells: HEK-293
Protocol: The following patch voltage clamp electrophysiology studies were performed on representative compounds of the invention using human embryonic kidney cells (HEK), permanently transfected with an expression vector containing the full-length cDNA coding for the desired human sodium channel α-subunit, grown in culture media containing 10% FBS, 1% PSG, and 0.5 mg/mL G418 at 37° C. with 5% CO2. […] NaV1.7 and NaV1.5 cDNAs (NM_002977 and AC137587; SCN5A, respectively) were stably expressed in HEK-293 cells. The β1 subunit was coexpressed in both the NaV1.7 and NaV1.5 cell lines.
Sodium currents were measured using the patch clamp technique in the whole-cell configuration using either a PatchXpress automated voltage clamp or manually using an Axopatch 200B (Axon Instruments) or Model 2400 (A-M systems) amplifier. The manual voltage clamp protocol was as follows: Borosilicate glass micropipettes were fire-polished to a tip diameter yielding a resistance of 2-4 Mohms in the working solutions. The pipette was filled with a solution comprised of: 5 mM NaCl, 10 mM CsCl, 120 mM CsF, 0.1 mM CaCl2, 2 mM MgCl2, 10 mM HEPES, 10 mM EGTA; and adjusted to pH 7.2 with CsOH. The external solution had the following composition: 140 mM NaCl, 5 mM KCl, 2 mM CaCl2, 1 mM MgCl2, 10 mM HEPES; and adjusted to pH 7.4 with NaOH. In some studies, the external sodium was reduced by equimolar replacement with choline. Osmolarity in the CsF internal and NaCl external solutions was adjusted to 300 mOsm/kg and 310 mOsm/kg with glucose, respectively. All recordings were performed at ambient temperature in a bath chamber with a volume of 150 μL. Control sodium currents were measured in 0.5% DMSO. Controls and representative compounds of the invention were applied to the recording chamber through a 4-pinch or 8-pinch valve bath perfusion system manufactured by ALA Scientific Instruments.
Series resistance compensation was applied (60-80%). […] All statistics in this study are given as mean±SD.
The membrane potential was maintained at a voltage where inactivation of the channel is complete (which was −60 mV for both NaV1.7 and NaV1.5). The voltage is then stepped back to a very negative (Vhold=[…]) voltage for 20 ms and then a test pulse is applied to quantify the compound block. […] The percent decrease in sodium current following wash-on of compound was taken as the percent block of sodium channels.

[1] = human, HEK-293 cells stably expressing human NaV1.5 with β1 subunit, pH 7.4

T1 sequence (Q15858 1-1977 isoform Q15858-3): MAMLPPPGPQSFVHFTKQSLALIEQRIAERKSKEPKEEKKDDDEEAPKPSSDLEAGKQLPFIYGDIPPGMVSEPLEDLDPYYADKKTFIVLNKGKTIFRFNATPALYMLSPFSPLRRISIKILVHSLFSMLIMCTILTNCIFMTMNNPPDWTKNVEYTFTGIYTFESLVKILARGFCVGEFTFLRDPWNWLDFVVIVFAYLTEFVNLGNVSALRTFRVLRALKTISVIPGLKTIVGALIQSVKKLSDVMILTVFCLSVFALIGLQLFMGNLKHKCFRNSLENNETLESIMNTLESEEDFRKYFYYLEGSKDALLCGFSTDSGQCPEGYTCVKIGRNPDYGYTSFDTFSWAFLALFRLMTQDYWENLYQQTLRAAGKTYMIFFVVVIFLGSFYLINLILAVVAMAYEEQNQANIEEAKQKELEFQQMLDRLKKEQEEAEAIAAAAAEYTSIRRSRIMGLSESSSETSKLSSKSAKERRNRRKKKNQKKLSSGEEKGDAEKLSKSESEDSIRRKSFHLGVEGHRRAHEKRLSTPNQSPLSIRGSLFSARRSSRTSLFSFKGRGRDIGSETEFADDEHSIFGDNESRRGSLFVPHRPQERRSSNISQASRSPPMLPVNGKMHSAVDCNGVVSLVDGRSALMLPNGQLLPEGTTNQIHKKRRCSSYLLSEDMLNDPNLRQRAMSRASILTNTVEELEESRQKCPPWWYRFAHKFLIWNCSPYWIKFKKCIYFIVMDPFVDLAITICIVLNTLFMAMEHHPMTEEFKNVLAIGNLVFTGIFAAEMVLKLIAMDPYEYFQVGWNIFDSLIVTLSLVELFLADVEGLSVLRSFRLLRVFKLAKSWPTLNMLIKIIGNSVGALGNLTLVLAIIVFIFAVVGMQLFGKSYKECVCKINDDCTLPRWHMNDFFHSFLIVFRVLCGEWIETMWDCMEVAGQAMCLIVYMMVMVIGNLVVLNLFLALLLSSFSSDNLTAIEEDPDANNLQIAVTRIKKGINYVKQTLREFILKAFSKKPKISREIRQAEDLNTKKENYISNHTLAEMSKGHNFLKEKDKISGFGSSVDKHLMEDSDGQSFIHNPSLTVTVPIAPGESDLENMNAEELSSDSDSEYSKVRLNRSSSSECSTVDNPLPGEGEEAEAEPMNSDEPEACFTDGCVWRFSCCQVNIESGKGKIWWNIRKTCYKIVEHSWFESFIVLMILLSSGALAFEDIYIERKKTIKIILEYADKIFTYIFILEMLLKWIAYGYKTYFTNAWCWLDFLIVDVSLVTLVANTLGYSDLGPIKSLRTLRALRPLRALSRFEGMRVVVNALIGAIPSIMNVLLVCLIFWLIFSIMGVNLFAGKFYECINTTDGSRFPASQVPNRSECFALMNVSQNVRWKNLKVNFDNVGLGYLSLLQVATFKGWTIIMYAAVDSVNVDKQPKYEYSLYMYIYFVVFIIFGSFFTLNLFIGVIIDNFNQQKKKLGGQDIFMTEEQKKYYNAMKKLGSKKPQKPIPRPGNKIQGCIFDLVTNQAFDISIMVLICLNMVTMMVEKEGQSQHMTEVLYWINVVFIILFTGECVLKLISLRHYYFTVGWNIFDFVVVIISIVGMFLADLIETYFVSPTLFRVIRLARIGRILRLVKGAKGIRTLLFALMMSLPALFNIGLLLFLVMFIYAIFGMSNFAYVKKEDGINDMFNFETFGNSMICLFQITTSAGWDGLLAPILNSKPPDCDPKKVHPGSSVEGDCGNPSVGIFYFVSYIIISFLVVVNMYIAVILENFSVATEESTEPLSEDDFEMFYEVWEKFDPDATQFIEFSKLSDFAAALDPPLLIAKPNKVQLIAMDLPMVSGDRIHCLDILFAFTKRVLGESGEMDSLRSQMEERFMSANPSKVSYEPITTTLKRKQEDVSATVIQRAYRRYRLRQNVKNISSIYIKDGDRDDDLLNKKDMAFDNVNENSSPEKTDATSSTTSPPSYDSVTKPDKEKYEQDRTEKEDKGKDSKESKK
T1 sequence (Q07699 19-218 partner): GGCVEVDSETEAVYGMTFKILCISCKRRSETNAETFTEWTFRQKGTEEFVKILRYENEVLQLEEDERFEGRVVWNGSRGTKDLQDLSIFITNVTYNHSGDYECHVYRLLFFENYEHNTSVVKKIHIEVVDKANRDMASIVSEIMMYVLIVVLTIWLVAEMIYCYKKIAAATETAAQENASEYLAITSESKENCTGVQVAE
T2 sequence (Q15858 1-1977 isoform Q15858-3): as the sequence (Q15858 1-1977 isoform Q15858-3) above
T2 sequence (Q07699 19-218 partner): as the sequence (Q07699 19-218 partner) above
T3 sequence (Q14524 whole entry): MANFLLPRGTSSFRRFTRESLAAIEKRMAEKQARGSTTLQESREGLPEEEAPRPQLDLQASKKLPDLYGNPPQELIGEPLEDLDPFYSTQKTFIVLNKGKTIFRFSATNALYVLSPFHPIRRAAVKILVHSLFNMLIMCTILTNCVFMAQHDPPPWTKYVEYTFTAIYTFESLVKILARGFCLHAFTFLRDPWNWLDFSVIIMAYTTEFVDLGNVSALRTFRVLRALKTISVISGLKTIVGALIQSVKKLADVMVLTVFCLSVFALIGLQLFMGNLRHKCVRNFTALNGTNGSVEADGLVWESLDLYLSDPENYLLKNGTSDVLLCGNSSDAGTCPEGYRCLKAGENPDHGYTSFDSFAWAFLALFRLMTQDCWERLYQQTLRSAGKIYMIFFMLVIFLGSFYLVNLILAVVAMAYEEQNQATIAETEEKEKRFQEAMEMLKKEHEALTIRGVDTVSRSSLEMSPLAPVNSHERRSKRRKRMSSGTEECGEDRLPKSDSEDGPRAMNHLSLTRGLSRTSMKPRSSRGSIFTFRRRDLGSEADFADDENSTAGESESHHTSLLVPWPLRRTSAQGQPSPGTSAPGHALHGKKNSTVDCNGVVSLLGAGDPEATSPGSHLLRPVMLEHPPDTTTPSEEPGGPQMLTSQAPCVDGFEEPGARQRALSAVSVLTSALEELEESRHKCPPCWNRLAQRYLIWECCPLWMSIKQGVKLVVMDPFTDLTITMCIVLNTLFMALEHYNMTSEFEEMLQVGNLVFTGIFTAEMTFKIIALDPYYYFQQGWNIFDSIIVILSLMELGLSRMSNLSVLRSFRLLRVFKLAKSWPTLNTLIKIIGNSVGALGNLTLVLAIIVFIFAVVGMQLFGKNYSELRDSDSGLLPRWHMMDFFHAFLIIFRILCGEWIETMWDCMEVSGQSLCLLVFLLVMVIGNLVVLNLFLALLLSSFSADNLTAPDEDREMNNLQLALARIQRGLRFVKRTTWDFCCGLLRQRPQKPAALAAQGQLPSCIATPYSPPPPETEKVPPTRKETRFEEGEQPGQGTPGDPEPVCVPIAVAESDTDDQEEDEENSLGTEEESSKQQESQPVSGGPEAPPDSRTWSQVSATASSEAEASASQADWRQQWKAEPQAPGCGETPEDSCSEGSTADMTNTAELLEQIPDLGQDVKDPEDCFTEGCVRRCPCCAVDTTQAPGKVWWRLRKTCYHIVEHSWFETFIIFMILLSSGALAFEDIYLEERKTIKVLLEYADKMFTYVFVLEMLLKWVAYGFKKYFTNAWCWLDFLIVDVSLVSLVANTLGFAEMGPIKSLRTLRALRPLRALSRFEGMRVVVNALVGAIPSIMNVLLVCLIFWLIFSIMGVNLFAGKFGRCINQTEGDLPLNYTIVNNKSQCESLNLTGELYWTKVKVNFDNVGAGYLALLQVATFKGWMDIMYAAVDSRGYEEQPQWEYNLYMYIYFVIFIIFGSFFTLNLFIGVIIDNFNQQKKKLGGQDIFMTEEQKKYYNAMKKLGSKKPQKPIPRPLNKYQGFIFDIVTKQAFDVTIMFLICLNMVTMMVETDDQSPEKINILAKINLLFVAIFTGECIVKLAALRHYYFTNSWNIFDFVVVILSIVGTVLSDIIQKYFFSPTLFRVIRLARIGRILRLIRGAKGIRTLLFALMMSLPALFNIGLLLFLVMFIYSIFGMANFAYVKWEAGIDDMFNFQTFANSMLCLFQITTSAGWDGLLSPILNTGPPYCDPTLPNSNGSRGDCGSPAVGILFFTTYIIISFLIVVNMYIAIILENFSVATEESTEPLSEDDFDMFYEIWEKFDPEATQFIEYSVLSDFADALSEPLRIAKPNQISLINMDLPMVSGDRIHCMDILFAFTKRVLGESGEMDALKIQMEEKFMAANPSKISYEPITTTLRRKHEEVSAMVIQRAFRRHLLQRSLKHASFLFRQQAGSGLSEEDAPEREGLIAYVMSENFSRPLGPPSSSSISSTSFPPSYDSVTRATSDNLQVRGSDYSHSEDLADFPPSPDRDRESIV

SMILES | IC50 (hNav1.7) | IC50 (human NaV1.7) | IC50 (NaV1.5; read-out: Nav1.5) | IC50 (NaV1.5; [1])
C[C@@H]1OCN(C(=O)c2cc(C3CC3)c(OCC34CC5CC(CC(C5)C3)C4)cc2F)[C@H]1C(=O)O [Example 163, (4R,5S)-3-[4-(1-adamantylmethoxy)-5-cyclopropyl-2-fluoro-benzoyl]-5-methyl-oxazolidine-4-carboxylic acid] | 120 nM | 820 nM | 4700 nM | –
O=C(O)C1SCCN1C(=O)c1cc(C2CC2)c(OCC23CC4CC(CC(C4)C2)C3)cc1F (stereo not drawn) [Example 78, 3-(4-(adamantan-1-ylmethoxy)-5-cyclopropyl-2-fluorobenzoyl)thiazolidine-2-carboxylic acid] | 9.4 nM | 87 nM | 13000 nM | –
O=C(O)[C@@H]1C[C@@H](F)CN1C(=O)c1cc(C2CC2)c(OCC2CCN(Cc3cc(C(F)(F)F)cc(C4CC4)n3)CC2)cc1F [Example 93, (2S, 4R)-1-(5-cyclopropyl-4-((1-((6-cyclopropyl-4-(trifluoromethyl)-pyridin-2-yl)methyl)piperidin-4-yl)methoxy)-2-fluorobenzoyl)-4-fluoropyrrolidine-2-carboxylic acid] | 81 nM | 660 nM | – | ≥ 30000 nM
C[C@H]1OCN(C(=O)c2cc(C3CC3)c(OCC3CCN([C@@H](C)c4cc(Cl)cc(Cl)c4)CC3)cc2F)[C@@H]1C(=O)O [Example 164, (4S,5R)-3-[5-cyclopropyl-4-[[1-[(1S)-1-(3,5-dichlorophenyl)ethyl]-4-piperidyl]methoxy]-2-fluoro-benzoyl]-5-methyl-oxazolidine-4-carboxylic acid] | 25 nM | 62 nM | 13000 nM | –
C[C@H](NC(=O)c1cc(C2CC2)c(OCC23CC4CC(CC(C4)C2)C3)cc1F)C(=O)O [Example 11, (S)-2-(4-(adamantan-1-ylmethoxy)-5-cyclopropyl-2-fluorobenzamido)propanoic acid] | 200 nM | 36.1 nM | 2190 nM | –
O=C(N[C@@H](CC1CC1)C(=O)O)c1cc(C2CC2)c(OCC23CC4CC(CC(C4)C2)C3)cc1F [Example 189, (S)-2-(4-((3S,5S,7S)-adamantan-1-ylmethoxy)-5-cyclopropyl-2-fluorobenzamido)-3-cyclopropylpropanoic acid] | 120 nM | 4000 nM | 15000 nM | –
C[C@H](c1cc(Cl)cc(Cl)c1)N1CCC(C#N)(COc2cc(F)c(C(=O)N3C[C@H](F)C[C@H]3C(=O)O)cc2C2CC2)CC1 (single isomer, unassigned) [Example 126a] | 120 nM | 2300 nM | 10000 nM | –
O=C(O)[C@@H]1C[C@H](C(F)(F)F)CN1C(=O)c1cc(C2CC2)c(OCC23CC4CC(CC(C4)C2)C3)cc1F [Example 211, (2S,4S)-1-(4-((adamantan-1-yl)methoxy)-5-cyclopropyl-2-fluorobenzoyl)-4-(trifluoromethyl)pyrrolidine-2-carboxylic acid] | 2300 nM | 6700 nM | 14000 nM | –
O=C(O)[C@@H]1C[C@@H](F)CN1C(=O)c1cc(C2CC2)c(OCC2(F)CCN(Cc3ccc(F)c(Cl)c3)CC2)cc1F [Example 128, (2S,4R)-1-(4-((1-(3-chloro-4-fluorobenzyl)-4-fluoropiperidin-4-yl)methoxy)-5-cyclopropyl-2-fluorobenzoyl)-4-fluoropyrrolidine-2-carboxylic acid] | 87 nM | 710 nM | – | ≥ 30000 nM
O=C(O)[C@@H]1C[C@@H](F)CN1C(=O)c1c(F)cc(OCC23CC4CC(CC(C4)C2)C3)cc1C1CC1 [Example 204, (2S,4R)-1-(4-(adamantan-1-ylmethoxy)-2-cyclopropyl-6-fluorobenzoyl)-4-fluoropyrrolidine-2-carboxylic acid] | 560 nM | 7800 nM | 23000 nM | –

Second part, led by results:

IC50 (hNav1.7) | IC50 (human NaV1.7) | SMILES | IC50 (NaV1.5; read-out: Nav1.5) | IC50 (NaV1.5; [1])
1000 nM | 4200 nM | CC(c1cc(Cl)cc(Cl)c1)N1CCC(COc2cc(F)c(C(=O)N3[C@@H](C(=O)O)C[C@H]4CCC[C@H]43)cc2C2CC2)CC1 (stereo partly drawn) [Example 172, (2R,3R,6R)-1-(5-cyclopropyl-4-((1-((R)-1-(3,5-dichlorophenyl)ethyl)piperidin-4-yl)methoxy)-2-fluorobenzoyl)octahydrocyclopenta[b]pyrrole-2-carboxylic acid] | 14000 nM | –
290 nM | 360 nM | C[C@@H]1[C@H](O)CN(C(=O)c2cc(C3CC3)c(OCC34CC5CC(CC(C5)C3)C4)cc2F)[C@@H]1C(=O)O [Example 231, (2S,3S,4S)-1-(4-(adamantan-1-ylmethoxy)-5-cyclopropyl-2-fluorobenzoyl)-4-hydroxy-3-methylpyrrolidine-2-carboxylic acid] | 15000 nM | –
870 nM | 3500 nM | N#C[C@H]1C[C@@H](C(=O)O)N(C(=O)c2cc(C3CC3)c(OCC34CC5CC(CC(C5)C3)C4)cc2F)C1 [Example 144, (2S,4S)-1-[4-(1-adamantylmethoxy)-5-cyclopropyl-2-fluoro-benzoyl]-4-cyano-pyrrolidine-2-carboxylic acid] | – | ≥ 30000 nM
39 nM | 730 nM | CC(C)Nc1ccc(F)cc1CN1CCC(COc2cc(F)c(C(=O)N3C[C@H](F)C[C@H]3C(=O)O)cc2C2CC2)CC1 [Example 107, (2S,4R)-1-(5-cyclopropyl-2-fluoro-4-((1-(5-fluoro-2-(isopropylamino)benzyl)-piperidin-4-yl)methoxy)benzoyl)-4-fluoropyrrolidine-2-carboxylic acid] | 12000 nM | –
25 nM | 240 nM | O=C(O)[C@@H]1[C@H]2C[C@H]2CN1C(=O)c1cc(C2CC2)c(OCC23CC4CC(CC(C4)C2)C3)cc1F (stereo in doubt) [Example 171, 3-[4-(1-adamantylmethoxy)-5-cyclopropyl-2-fluoro-benzoyl]-3-azabicyclo[3.1.0]hexane-4-carboxylic acid] | 9000 nM | –
360 nM | 1300 nM | O=C(c1cc(C2CC2)c(OCC23CC4CC(CC(C4)C2)C3)cc1F)N1CC2CC1(C(=O)O)C2 [Example 176, 3-[4-(1-adamantylmethoxy)-5-cyclopropyl-2-fluoro-benzoyl]-3-azabicyclo[2.1.1]hexane-4-carboxylic acid] | 7200 nM | –
250 nM | 1500 nM | C[C@@H]1SCN(C(=O)c2cc(C3CC3)c(OCC34CC5CC(CC(C5)C3)C4)cc2F)[C@@H]1C(=O)O [Example 142a, (4R,5S)-3-[4-(1-adamantylmethoxy)-5-cyclopropyl-2-fluoro-benzoyl]-5-methyl-thiazolidine-4-carboxylic acid] | 17000 nM | –
6.4 nM | 260 nM | C[C@@H]1[C@@H](C(=O)O)N(C(=O)c2cc(C3CC3)c(OCC34CC5CC(CC(C5)C3)C4)cc2F)C[C@@H]1F [Example 219, (2S,3R,4R)-1-(4-(adamantan-1-ylmethoxy)-5-cyclopropyl-2-fluorobenzoyl)-4-fluoro-3-methylpyrrolidine-2-carboxylic acid] | 12000 nM | –
390 nM | 2600 nM | C[C@]1(COc2cc(F)c(C(=O)N3CCC[C@H]3C(=O)O)cc2C2CC2)CCN(c2cc(C(F)(F)F)c(Cl)cn2)C1 [Example 135, (S)-1-(4-(((S)-1-(5-chloro-4-(trifluoromethyl)pyridin-2-yl)-3-methylpyrrolidin-3-yl)methoxy)-5-cyclopropyl-2-fluorobenzoyl)pyrrolidine-2-carboxylic acid] | – | ≥ 30000 nM
